The values that follow come from patent US20120197004A1, “NOVEL ANTI-MICROBIAL PEPTIDOMIMETIC COMPOUNDS AND METHODS TO CALCULATE ANTI-MICROBIAL ACTIVITY” (priority 2006, published 2012).

Where a SMILES comes first, the peptide text is derived from it. [ ]: non-standard residue; d: D form. Oic = O=C(O)[C@@H]1C[C@@H]2CCCC[C@@H]2N1; Tic = O=C(O)[C@@H]1Cc2ccccc2CN1; GABA = NCCCC(=O)O

The experiment deals with Mycobacterium ranae (ATCC 110). The note with it: in vitro.

Regarding `CC(=O)NCCCC(=O)N[C@@H](Cc1ccccc1)C(=O)N1Cc2ccccc2C[C@H]1C(=O)N1[C@H](C(=O)NCCCC(=O)N[C@@H](CCCCN)C(=O)N2Cc3ccccc3C[C@H]2C(=O)N2[C@H](C(=O)NCCCC(=O)N[C@@H](Cc3ccccc3)C(=O)N3Cc4ccccc4C[C@H]3C(=O)N3[C@H](C(=O)NCCCC(=O)N[C@@H](CCCCN)C(=O)N4Cc5ccccc5C[C@H]4C(=O)N[C@@H](CCCCN)C(=O)N[C@@H](CCCCN)C(=O)N[C@@H](CCCCN)C(=O)N[C@@H](CCCCN)C(=O)N[C@@H](CCCCN)C(N)=O)C[C@@H]4CCCC[C@@H]43)C[C@@H]3CCCC[C@@H]32)C[C@@H]2CCCC[C@@H]21` [FKAB-1Gd3, Ac-Gaba-F-Tic-Oic-Gaba-K-Tic-Oic-Gaba-F-Tic-Oic-Gaba-K-Tic-KKKKK-CONH2] (Ac-[GABA]F[Tic][Oic][GABA]K[Tic][Oic][GABA]F[Tic][Oic][GABA]K[Tic]KKKKK-NH2), the “selectivity for Mycobacterium ranae over Staphylococcus aureus ME/GM/TC resistant” value came out at 10 fold.
